Read-outs that look alike come from different tables or passages of the source.
Key:
[1] = tested on: passive cutaneous anaphylaxis (PCA); experiment: Activity of suppressing passive cutaneous anaphylaxis (PCA); assay type: in vivo, Male Wistar rats
Experimental: Test compounds were examined on their antiallergic activities. […] After 48 hours, 1.0 ml of 0.5 % Evans Blue saline solution containing DNP.BSA (1 mg in protein) was injected through the tail vein to induce allergic reaction. After 30 minutes, the rats were sacrificed by bleeding and the skin of back where dye was leaked out was flayed and put it into 20 ml test tube with ground stopper. Thereto was added 1.0 ml of 1N KOH aqueous solution and then it was allowed to stand at 37° C. in incubator overnight for lysing. To this solution was added 8.3 ml of a mixture of acetone and 0.6N phosphoric acid (13:5) and the mixture was mixed well and then was filtered to remove the insoluble materials.
The test compounds were administered orally 1 hour before the antigen challenge. Suppression rate was expressed by percentage to the value in control where 0.5% aqueous methylcellulose solution was orally administered.

[2] = tested on: extracted ileum (histamine contraction); experiment: Antihistaminic activity: suppression of histamine-induced contraction of extracted ileum; parameters: species or system Female Hartley guinea pig; conditions: histamine 3×10^-7 M; guinea pig ileum; 50% suppression of contraction; read-out: anti-His in extracted ileum EC50
Experimental: Female Hartley guinea pig (weighing 500 to 650 g) were sacrificed and the ileum (length of about 10 to 25 cm) was extracted from the ileocecum to prepare a specimen (length of 3 cm). […] After allowing to stand for 60 minutes to make the specimen stable, a histamine (3×10^-7 M) was applied to the specimen at single application. Contraction of the specimen was determined and recorded using isotonic transducer. After repeating application of a histamine to make the contraction constant, a diluted solution of the test compound was applied. Three minutes after the application, a histamine was then added and an activity of suppressing contraction was examined.

male ICR mice = experiment: Toxicity Test (mouse acute toxicity, minimum lethal dose); assay type: in vivo; conditions: po, observed for 24 hours, head prints (10 mg/kg-po)
Description: The test compounds were orally administered to male ICR mice (weighing to 30 g) after fasting overnight. […] The results were expressed by minimum lethal dose. Toxicity of any compounds of the present invention were weaker than that of ketotifen which was a reference compound.

[3] = tested on: mouse biphasic allergic dermal reaction; experiment: Mouse Biphasic Allergic Dermal Reaction; assay type: in vivo, Female Balb/c mice; conditions: for inhibition in vivo at 1 mg/kg / inhibition in vivo at 0.1 mg/kg / inhibition in vivo at 3 mg/kg / inhibition in vivo at 10 mg/kg / inhibition in vivo at 30 mg/kg: Mus musculus; for suppression of the late allergic reaction (in words): edema after 24 hours; for suppression of the immediate allergic reaction (in words): edema after 1 hour
Experimental: Female Balb/c mice (weighing 18 to 25 g) were subjected to passive sensitization by intravenous administration of 1 ml of anti-DNP monoclonal IgE antibody showing 1:1024 of antibody titer. 24 hours after the sensitization, 25 μl of 0.15% dinitrofluorobenzene (DNFB) were applied to both sides of right and left auricles of mouse for inducing allergic reactions. Thickness of auricles were measured using Dial Thickness Gauge before the challenge with DNFB, and 1 and 24 hours after the challenge. And then, increase in thickness of auricles at 1 hour after the challenge (edema caused by immediate allergic reaction) and that at 24 hours after the challenge (edema caused by late allergic reaction) were calculated against the thickness of auricles before the challenge with DNFB, respectively.
Suppression rate was expressed by relative ratio (%) to the value in control in which a solvent was administered.
Test compounds, diphenhydramine which is a existing classical antihistamic drug, amlexanox which is an antiallergic drug and dexamethasone which is a steroidal drug were administered orally (partly intraperitoneally) once before antigen challenge.
The above test was performed by using a mouse biphasic allergic dermal reaction model which was a new model [see, Sakurai T, Inagaki, N. and Nagai, H Life Sci., 54, PL291-295 (1994)]. In this model, the immediate allergic reaction was induced by mediator release from mast cell at 1 hour after the challenge, and the late allergic reaction with inflammatory cells such as eosinophil (edema after 24 hours) was induced after 24 hours from the challenge.

[4] = Rattus norvegicus, po, 1 h, 10 mg/kg-po, 1 hour before antigen challenge, read-out: % suppression of rat PCA
[5] = 1 h, 1.0 mg/kg, oral, read-out: immediate edema (1 hr) suppression (%)
[6] = 24 h, 0.1 mg/kg, oral, read-out: late edema (24 hr) suppression (%)
[7] = 24 h, 1.0 mg/kg, oral, read-out: late edema (24 hr) suppression (%)
[8] = po, 1 h, read-out: immediate edema (1 hr) suppression (%)
[9] = po, 24 h, read-out: late edema (24 hr) suppression (%)

Row | Structure (SMILES) | inhibition in vivo at 10 mg/kg [1, 4] [%] | EC50 [2] [nM] | other results
1 | NS(=O)(=O)CCCCCCN1CCN(C(c2ccccc2)c2ccc(Cl)cc2)CC1 (stereo not shown) [Example 3] | 95.2 | 760 | mouse acute toxicity (lethal dose) (male ICR mice): > 500 mg/kg
2 | NS(=O)(=O)CCCCCCCCN1CCN(C(c2ccccc2)c2ccc(Cl)cc2)CC1 (stereo not shown) [Example 4] | 89 | 650 | mouse acute toxicity (lethal dose) (male ICR mice): > 500 mg/kg
3 | NS(=O)(=O)CCCCCCCCN1CCN(C(c2ccc(F)cc2)c2ccccn2)CC1 (stereo not shown) [Example 13] | 73.8 | 320 | mouse acute toxicity (lethal dose) (male ICR mice): > 500 mg/kg
4 | CNS(=O)(=O)CCCCCN1CCN(C(c2ccccc2)c2ccccc2)CC1 [Example 19] | 78 | 460 | 
5 | CNS(=O)(=O)CCCCCCN1CCN(C(c2ccccc2)c2ccc(Cl)cc2)CC1 (stereo not shown) [Example 21] | 89.7 | 510 | mouse acute toxicity (lethal dose) (male ICR mice): > 500 mg/kg
6 | CNS(=O)(=O)CCCCCCN1CCN(C(c2ccc(F)cc2)c2ccccn2)CC1 (stereo not shown) [Example 26] | 71 | 300 | mouse acute toxicity (lethal dose) (male ICR mice): > 500 mg/kg
7 | CCNS(=O)(=O)CCCCCCCCN1CCN(C(c2ccc(F)cc2)c2ccccn2)CC1 (stereo not shown) [Example 34] | 84.8 | 330 | 
8 | CCCNS(=O)(=O)CCCCCCN1CCN(C(c2ccccc2)c2ccc(Cl)cc2)CC1 (stereo not shown) [Example 36] | 77.5 | 560 | 
9 | O=S(=O)(CCCCCCCCN1CCN(C(c2ccc(F)cc2)c2ccccn2)CC1)NC1CC1 (stereo not shown) [Example 57] | 90.6 | 390 | inhibition in vivo at 1 mg/kg [3, 5]: 31.6%; inhibition in vivo at 0.1 mg/kg [3, 6]: 7.7%; inhibition in vivo at 1 mg/kg [3, 7]: 46.2%; suppression of the late allergic reaction (in words) [3]: showed strong activity of suppressing the late allergic reaction
10 | O=S(=O)(CCCCCCCCCCN1CCN(C(c2ccc(F)cc2)c2ccccn2)CC1)NC1CC1 (stereo not shown) [Example 58] | 76.5 | 350 | 
11 | CN(C)S(=O)(=O)CCCCCCN1CCN(C(c2ccccc2)c2ccc(F)cc2)CC1 (stereo not shown) [Example 68] | 94.5 | 370 | 
12 | CN(C)S(=O)(=O)CCCCCCN1CCN(C(c2ccc(F)cc2)c2ccccn2)CC1 (stereo not shown) [Example 82] | 86.8 | 790 | 
13 | CNS(=O)(=O)CCCCCN1CCN(C(c2ccccc2)c2ccc(Cl)cc2)CC1 (stereo not shown) [Example 106] | 90.3 | 400 | 
14 | CCNS(=O)(=O)CCCCCCCN1CCN(C(c2ccccc2)c2ccc(Cl)cc2)CC1 (stereo not shown) [Example 107] | 87.8 | 620 | 
15 | CC(C)NS(=O)(=O)CCCCCN1CCN(C(c2ccccc2)c2ccc(Cl)cc2)CC1 (stereo not shown) [Example 110] | 88.3 | 570 | 
16 | O=S(=O)(CCCCN1CCN(C(c2ccccc2)c2ccc(Cl)cc2)CC1)NC1CC1 (stereo not shown) [Example 113] | 87.5 | 710 | 
17 | O=S(=O)(CCCCCN1CCN(C(c2ccccc2)c2ccc(Cl)cc2)CC1)NC1CC1 (stereo not shown) [Example 114] | 83.5 | 560 | 
18 | O=S(=O)(CCCCCCN1CCN(C(c2ccccc2)c2ccccn2)CC1)NC1CC1 (stereo not shown) [Example 123] | 83.5 | 330 | 
19 | O=S(=O)(CCCCCCN1CCN(C(c2ccccc2)c2ccccc2)CC1)NC1CC1 [Example 126] | 80.8 | 300 | 
20 | O=S(=O)(CCCCCN1CCN(C(c2ccccc2)c2ccc(Cl)cc2)CC1)NC1CCC1 (stereo not shown) [Example 127] | 90.7 | 410 | 
21 | O=S(=O)(CCCCCCN1CCN(C(c2ccccc2)c2ccccc2)CC1)NC1CCC1 [Example 134] | 87.1 | 580 | 
22 | O=S(=O)(CCCCCCN1CCN(C(c2ccccc2)c2ccccc2)CC1)NC1CCCC1 [Example 141] | 87.4 | 210 | 
23 | O=S(=O)(CCCCCCN1CCN(C(c2ccccc2)c2ccccc2)CC1)NC1CCCCC1 [Example 149] | 97.7 | 310 | 
24 | NS(=O)(=O)CCCCCCN1CCN(C(c2ccccc2)c2ccc(Cl)cc2)CC1 (stereo not shown) [Example 153, potassium 6-[[4-(4-chlorophenyl)phenylmethyl]-1-piperazinyl]hexylsulfonamide] |  |  | % suppression of rat PCA ([1]; 10 mg/kg-po, 1 hour before antigen challenge): 86.2%; mouse acute toxicity (lethal dose) (male ICR mice): > 500 mg/kg; inhibition in vivo at 0.1 mg/kg ([3]; 1 h, 0.1 mg/kg, oral, read-out: immediate edema (1 hr) suppression (%)): 24%; inhibition in vivo at 1 mg/kg [3, 5]: 56%; inhibition in vivo at 0.1 mg/kg [3, 6]: 24%; inhibition in vivo at 1 mg/kg [3, 7]: 48%
25 | O=S(=O)(O)CCCCN1CCN(C(c2ccc(F)cc2)c2ccccn2)CC1 (stereo not shown) [Ref. Ex. 4, 4-[4-[4-fluorophenyl-(2-pyridyl)methyl]-1-piperazinyl]butylsulfonic acid, reference compound] | 0 |  | antiallergic activity / activity of suppressing PCA (in words) ([1]; rat, in vivo): did not show an antiallergic activity
26 | CC(C)c1ccc2oc3nc(N)c(C(=O)O)cc3c(=O)c2c1 [amlexanox, reference compound] |  |  | inhibition in vivo at 3 mg/kg [3, 8]: 38.5%; inhibition in vivo at 10 mg/kg [3, 8]: 38.5%; inhibition in vivo at 30 mg/kg [3, 8]: 50%; inhibition in vivo at 3 mg/kg [3, 9]: 12.1%; inhibition in vivo at 30 mg/kg [3, 9]: 6.1%; suppression of the immediate allergic reaction (in words) [3]: suppressed the immediate allergic reaction; suppression of the late allergic reaction (in words) [3]: did not suppress the late allergic reaction
27 | C[C@@H]1C[C@H]2[C@@H]3CCC4=CC(=O)C=C[C@]4(C)[C@@]3(F)[C@@H](O)C[C@]2(C)[C@@]1(O)C(=O)CO [dexamethasone, reference compound] |  |  | inhibition in vivo at 0.1 mg/kg ([3]; ip, 1 h, 0.1 mg/kg (i.p.), read-out: immediate edema (1 hr) suppression (%)): 32.4%; inhibition in vivo at 1 mg/kg ([3]; ip, 1 h, dexamethasone 1.0 mg/kg, (i.p.) printed only at the 0.1 line, read-out: immediate edema (1 hr) suppression (%)): 32.4%; inhibition in vivo at 3 mg/kg ([3]; ip, 1 h, dexamethasone 3.0 mg/kg, (i.p.) printed only at the 0.1 line, read-out: immediate edema (1 hr) suppression (%)): 11.8%; inhibition in vivo at 0.1 mg/kg ([3]; ip, 24 h, 0.1 mg/kg (i.p.), read-out: late edema (24 hr) suppression (%)): 34.3%; inhibition in vivo at 1 mg/kg ([3]; ip, 24 h, dexamethasone 1.0 mg/kg, (i.p.) printed only at the 0.1 line, read-out: late edema (24 hr) suppression (%)): 42.9%; inhibition in vivo at 3 mg/kg ([3]; ip, 24 h, dexamethasone 3.0 mg/kg, (i.p.) printed only at the 0.1 line, read-out: late edema (24 hr) suppression (%)): 45.7%; suppression of the late allergic reaction (in words) [3]: showed the strong activity of suppressing the late allergic reaction
28 | CN(C)CCOC(c1ccccc1)c1ccccc1 [diphenhydramine, reference compound] |  |  | inhibition in vivo at 3 mg/kg ([3]; 1 h, 3.0 mg/kg, oral, read-out: immediate edema (1 hr) suppression (%)): 17.8%; inhibition in vivo at 10 mg/kg ([3]; 1 h, 10.0 mg/kg, oral, read-out: immediate edema (1 hr) suppression (%)): 13.3%; inhibition in vivo at 30 mg/kg ([3]; 1 h, 30.0 mg/kg, oral, read-out: immediate edema (1 hr) suppression (%)): 53.3%; inhibition in vivo at 30 mg/kg ([3]; 24 h, 30.0 mg/kg, oral, read-out: late edema (24 hr) suppression (%)): 14.3%; suppression of the immediate allergic reaction (in words) [3]: suppressed the immediate allergic reaction; suppression of the late allergic reaction (in words) [3]: did not suppress the late allergic reaction
29 | CN1CCC(=C2c3ccccc3CC(=O)c3sccc32)CC1 [ketotifen, reference compound] |  |  | inhibition in vivo at 2 mg/kg ([1]; Rattus norvegicus, po, 1 h, read-out: % suppression of rat PCA): 47.4 to 73.6%; mouse acute toxicity (lethal dose) (male ICR mice): 500 mg/kg

From patent US5716950A, “Diazacycloalkanealkylsulfonamide derivatives” (Nippon Shoji Kabushiki Kaisha, priority 1994, dated 1998)
